The values below come from US8501787B2, “Compounds for the inhibition of angiogenesis and use thereof” (Shire Orphan Therapies GmbH, priority 2004, dated 2013).

Some results are limits rather than exact numbers.

The target of the first test is T1, integrin alpha5beta1 (Homo sapiens, UniProt P05556+P08648).
T1 construct: The integrin alpha5beta1 extracellular domain Fc-fusion was expressed and purified; made in house
The test is described as follows: Alpha5beta1-Fibronectin binding assay (competitive ELISA). Conditions: inhibition of integrin binding to fibronectin; read-out: IC50 alpha5beta1 in nM. The procedure: The optimal concentrations of integrin and ligand were selected from ELISA binding studies with variable concentrations of both to obtain optimal signal noise ratio for further studies. IC50 studies were performed with fixed concentration of ligand and integrin and a serial dilution of inhibitor. The plates were measured with SpectraMax Plus reader (Molecular Devices). The resulting inhibition curves were analyzed using SoftMaxPro 4.0 software, the turning point describes the IC50 value.
Fibronectin and Vitronectin were purchased from Sigma, fibrinogen from Calbiochem. (EMD Biosciences, Darmstadt, Germany) The integrin alpha5beta1 extracellular domain Fc-fusion was expressed and purified as described in (Coe, 2001, JBC, 276, 35854). Integrins alphavbeta3 and alphavbeta5 were purchased from Chemicon (Chemicon Europe, Germany) and alphaIIbbeta3 form Kordia (Kordia Life Science, Leiden, Netherlands)
Fibronectin was diluted with coating buffer (15 mM Na2CO3, 35 mM NaHCO3, pH9.6) and coated with 100 μL/well to Nunc-Immuno maxisorp plates (Nalge Nunc Europe Ltd) over night at 4° C. After discarding the coating solution plates were washed 3 times with buffer 1 ([…], pH7.6, 150 mM NaCl, 1 mM […], 1 mg/mL BSA) and blocked with 100 μL blocking buffer (3% BSA in PBS 0.1% Tween20) for 1 hour at room temperature. After washing the blocked plates (3 times) with buffer 1, integrin (50 μL) and either inhibitor (serial dilution in buffer 1) or buffer 1 (50 μL) were added to the wells and incubated for one hour at RT. Plates were then washed (3 times) with buffer 1 and incubated with 100 μL of anti-human-Fc-HRP antibody conjugate (Sigma-Aldrich, Taufkirchen, Germany) in buffer 1 for 1 hour at RT. After additional washing steps (3 times) with buffer 1 50 μL of HRP substrate solution TMB (Seramun, Germany) were added to the wells. Colour development was stopped after 3-5 minutes with 50 μL 1M H2SO4. The developed colour was measured at 450 nm and analyzed as described above.
Turning to `Cc1cc(C)c(S(=O)(=O)N[C@@H](CNC(=O)CO[C@@H]2C[C@@H](CNc3ccccn3)N(S(=O)(=O)Cc3ccccc3)C2)C(=O)O)c(C)c1` [Compound 15, 3-{2-[1-Phenylmethanesulfonyl-5-(pyridin-2-ylaminomethyl)-pyrrolidin-3-yloxy]-acetylamino}-2-(2,4,6-trimethyl-benzenesulfonylamino)-propionic acid], the IC50 is 11.3 nM.

The same test, now with this note: method of section 1.1; read-out: Group (binding activities to integrin alpha5beta1).
`CCC(C)(C)C(=O)N[C@@H](CNC(=O)CO[C@@H]1C[C@@H](CNc2ccccn2)N(C(=O)OCc2ccccc2)C1)C(=O)O` [Compound 118, 4-{[2-Carboxy-2-(2,2-dimethyl-butyrylamino)-ethylcarbamoyl]-methoxy}-2-(pyridin-2-ylaminomethyl)-pyrrolidine-1-carboxylic acid benzyl ester]: the IC50 was under 10 nM.

As for `CC(C)(C)C(=O)N[C@@H](CNC(=O)CO[C@@H]1C[C@@H](CNc2ccccn2)N(C(=O)OCc2ccccc2)C1)C(=O)O` [Compound 117, 4-{[2-Carboxy-2-(2,2-dimethyl-propionylamino)-ethylcarbamoyl]-methoxy}-2-(pyridin-2-ylaminomethyl)-pyrrolidine-1-carboxylic acid benzyl ester], the IC50 was under 10 nM.

As to `COc1cccc(CC(=O)N2C[C@H](OCC(=O)NC[C@H](NS(=O)(=O)c3c(C)cc(C)cc3C)C(=O)O)C[C@H]2CNc2ccccn2)c1` [Compound 36, 3-{2-[1-[2-(3-Methoxy-phenyl)-acetyl]-5-(pyridin-2-ylaminomethyl)-pyrrolidin-3-yloxy]-acetylamino}-2-(2,4,6-trimethyl-benzenesulfonylamino)-propionic acid], the IC50 lay in the range of 10 to 500 nM.

As to `Cc1cc(C)c(S(=O)(=O)N[C@@H](CNC(=O)CO[C@@H]2C[C@@H](CNc3ccccn3)N(S(=O)(=O)Cc3ccccc3)C2)C(=O)O)c(C)c1` [Compound 15, 3-{2-[1-Phenylmethanesulfonyl-5-(pyridin-2-ylaminomethyl)-pyrrolidin-3-yloxy]-acetylamino}-2-(2,4,6-trimethyl-benzenesulfonylamino)-propionic acid], the IC50 lay in the range of 10 to 500 nM.

Consider `O=C(CO[C@@H]1C[C@@H](CNc2ccccn2)N(C(=O)OCc2ccccc2)C1)NC[C@H](NC(=O)CCCc1ccccc1)C(=O)O` [Compound 127, 4-{[2-Carboxy-2-(4-phenyl-butyrylamino)-ethylcarbamoyl]-methoxy}-2-(pyridin-2-ylaminomethyl)-pyrrolidine-1-carboxylic acid benzyl ester], for which the IC50 fell in the range of 10 to 500 nM.

Regarding `CS(=O)(=O)NC(CNC(=O)COC1CC(CNc2ccccn2)N(C(=O)OCc2ccccc2)C1)C(=O)O` (stereo not drawn) [Compound 69, 4-[(2-Carboxy-2-methanesulfonylamino-ethylcarbamoyl)-methoxy]-2-(pyridin-2-ylaminomethyl)-pyrrolidine-1-carboxylic acid benzyl ester], the IC50 was over 500 nM.

As for `COc1ccnc(NC[C@@H]2C[C@@H](OCC(=O)NC[C@H](NC(=O)C3(C)CCCCC3)C(=O)O)CN2C(=O)CC(C)(C)C)c1` [Compound 148, 3-(2-{1-(3,3-Dimethyl-butyryl)-5-[(4-methoxy-pyridin-2-ylamino)-methyl]-pyrrolidin-3-yloxy}-acetylamino)-2-[(1-methyl-cyclohexanecarbonyl)-amino]-propionic acid], the IC50 was under 10 nM.

`Cc1cc(C)c(S(=O)(=O)N[C@@H](CNC(=O)CO[C@@H]2C[C@@H](CNc3ccccn3)N(C(=O)C(F)(F)C(F)(F)C(F)(F)C(F)(F)C(F)(F)C(F)(F)C(F)(F)F)C2)C(=O)O)c(C)c1` [Compound 63, 3-{2-[1-(2,2,3,3,4,4,5,5,6,6,7,7,8,8,8-Pentadecafluoro-octanoyl)-5-(pyridin-2-ylaminomethyl)-pyrrolidin-3-yloxy]-acetylamino}-2-(2,4,6-trimethyl-benzenesulfonylamino)-propionic acid]: the IC50 was over 500 nM.

`O=C(CO[C@@H]1C[C@@H](CNc2ccccn2)N(C(=O)OCc2ccccc2)C1)NC[C@H](NC(=O)c1ccccc1Cl)C(=O)O` [Compound 97, 4-{[2-Carboxy-2-(2-chloro-benzoylamino)-ethylcarbamoyl]-methoxy}-2-(pyridin-2-ylaminomethyl)-pyrrolidine-1-carboxylic acid benzyl ester]: the IC50 was under 10 nM.

For `O=C(O)C[C@H](Cc1ccccc1)NC(=O)CO[C@@H]1C[C@@H](CNc2ccccn2)N(C(=O)OCc2ccccc2)C1` [Compound 150, 4-[(1-Carboxymethyl-2-phenyl-ethylcarbamoyl)-methoxy]-2-(pyridin-2-ylaminomethyl)-pyrrolidine-1-carboxylic acid benzyl ester], the IC50 is over 500 nM.

As to `Cc1ccc(C[C@@H](CC(=O)O)NC(=O)CO[C@@H]2C[C@@H](CNc3ccccn3)N(C(=O)OCc3ccccc3)C2)cc1` [Compound 152, 4-[(1-Carboxymethyl-2-p-tolyl-ethylcarbamoyl)-methoxy]-2-(pyridin-2-ylaminomethyl)-pyrrolidine-1-carboxylic acid benzyl ester], the IC50 is over 500 nM.

Regarding `O=C(CO[C@@H]1C[C@@H](CNc2ccccn2)N(C(=O)OCc2ccccc2)C1)NC[C@H](NC(=O)Nc1ccc(-c2ccccc2)cc1)C(=O)O` [Compound 80, 4-{[2-(3-Biphenyl-4-yl-ureido)-2-carboxy-ethylcarbamoyl]-methoxy}-2-(pyridin-2-ylaminomethyl)-pyrrolidine-1-carboxylic acid benzyl ester], the IC50 lay in the range of 10 to 500 nM.

As for `O=C(CO[C@@H]1C[C@@H](CNc2ccccn2)N(C(=O)OCc2ccccc2)C1)NC[C@H](NC(=O)C1(c2ccccc2)CC1)C(=O)O` [Compound 106, 4-({2-Carboxy-2-[(1-phenyl-cyclopropanecarbonyl)-amino]-ethylcarbamoyl}-methoxy)-2-(pyridin-2-ylaminomethyl)-pyrrolidine-1-carboxylic acid benzyl ester], the IC50 lay in the range of 10 to 500 nM.

For `Cc1cc(C)c(S(=O)(=O)N[C@@H](CNC(=O)CO[C@@H]2C[C@@H](CNc3ncccn3)N(C(=O)OCc3ccccc3)C2)C(=O)O)c(C)c1` [Compound 130, 4-{[2-Carboxy-2-(2,4,6-trimethyl-benzenesulfonylamino)-ethylcarbamoyl]-methoxy}-2-(pyrimidin-2-ylaminomethyl)-pyrrolidine-1-carboxylic acid benzyl ester], the IC50 was over 500 nM.
